Experimental data as given in US20020164346A1, “Altered peptide ligands” (priority 2001, published 2002).

Tested on: normal donor HLA-A2+ T cells
Experiment: In vitro T cell education with peptide-pulsed autologous dendritic cells; lysis of 51Cr-labeled peptide-pulsed T2 cells
Format: cell-based, human
From the text: Normal donor aphoresis products were obtained from Dana-Farber Cancer Research Institute (Boston, Mass.). PBMC were isolated by centrifugation over Ficoll (Nycomed, Oslo, Norway). CD8^+ T cells were isolated using magnetic beads (Dynal, Oslo, Norway) according to the manufacturers instructions. To generate autologous dendritic cells, monocytes were isolated from the PBMC and treated with GM-CSF (Immunex, Seattle, Wash.) and IL-4 (PeproTech, London, England) for 6 days as previously described. One day prior to establishing the T cell/DC cocultures, the DCs were pulsed with peptides (10 μg/ml) overnight followed by the addition of the previously isolated CD8+ T cells at a T:DC of 10:1. Cultures were restimulated with peptide-pulsed DCs. IL-2 (50 IU/ml) was introduced on day 8 and added every 3-4 days as needed. The bulk cultures were assayed one week after the fifth restimulation. Peptide-pulsed T2 cell targets were prepared as described above and adenovirus-infected target cells were allowed to incubate with the viruses for 48 hours at the indicated MOI prior to being used in the CTL assay. […]
Altered peptides give rise to T cells that recognize the native epitope. […] All data points represent the average of 4 replicates and background lysis, as determined using T2 cells pulsed with equivalent amounts of DMSO containing no peptide, was subtracted out.

## native gp100 peptide ligand: native (wild-type) gp100209-217 peptide epitope of the human melanoma antigen gp100
T cells from normal (healthy) donors educated with the peptide
  ability of peptide-educated T cells to lyse targets displaying the native antigen/ligand: generally inefficient
After 5 weekly stimulations, bulk T cell cultures, FIG. 3
  eliciting reactive T cells (lysis of T2 cells pulsed with native peptide): relatively poor
